The values below come from US20260317319A1, “NOVEL ERGOLINES AND METHODS OF TREATING MOOD DISORDERS” (Gilgamesh Pharma Inc., priority 2023, published 2026).

Each structure is given as a SMILES string.

The test system of data set [1] is C57BL/6 mice. The experiment in a line: Mouse head twitch response (HTR) assay (observer-counted). The format is in vivo. Conditions: SC. The protocol: Agonists of the 5-HT2A receptor are well known to induce this effect in rodents and the potency of this HTR is correlated with hallucinogenic potency in humans.
Animals. Adult male C57BL/6 mice, aged 6-8 weeks (body weight 20-25 g) were used in this experiment. Animals were housed under controlled temperatures and 12-hour light/dark cycles (lights on between 07:00-19:00 h), with ad libitum food and water. This study was carried out in strict accordance with the requirements of the Committee for the Purpose of Control and Supervision of Experiments on Animals (CPCSEA), India. All efforts were made to minimize suffering.
Procedure. Mice were administered one dose of the drug and immediately placed into a small open field for behavioral observation. Animals were observed continuously for 20 mins and the number of head twitches (HTs) were counted by an observer blind to the treatment condition.
Statistical Analysis. The data points shown are the mean±standard error of the mean (SEM). Analysis was performed using GraphPad Prism 6. Curves were fit using a non-linear gaussian distribution to calculate ED50 and Emax values.
Additional disclosed compounds were tested in the mouse head twitch response (HTR) assay according to the procedure described in Example 57 (administered SC). […] Lastly, compounds with much larger benzyl and phenethyl substituents on the amine nitrogen (e.g., 10 and 11) were low efficacy in this assay, consistent with their bias toward arrestin signaling (see Example 55).

The nature of data set [2]: in vitro. Conditions: RLM (male Sprague-Dawley) 0.50 mg/mL, NADPH 1 mM, 1 μM compound, pH 7.4, 37° C., 60 min. It counts as in vitro ADME, rat. The text has this:
RLM Stability Pooled RLM from male Sprague-Dawley rats (Xenotech R1000) were used.

Data set [3] in a line: in vitro. The format is in vitro ADME, mouse. Conditions: MLM (male CD-1) 0.50 mg/mL, NADPH 1 mM, 1 μM compound, pH 7.4, 37° C., 60 min. The text has this:
MLM Stability Pooled MLM from male CD-1 mice (BIOIVT M00501) were used.

The target in data set [4] is 5-HT2A receptor (Homo sapiens, UniProt P28223). The experiment in a line: cell-based. The format is cell-based. The following applies: beta-arrestin recruitment. The method, boiled down: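 PathHunter β-arrestin recruitment (enzyme fragment complementation): 5-HT2A fused to ProLink donor in cells co-expressing β-arrestin–β-galactosidase acceptor, seeded and held at 37° C before testing. Chemiluminescent read-out; agonist % activity = (sample RLU − vehicle)/(max control ligand − vehicle) × 100.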
Chain of 5-HT2A receptor (P28223 whole entry, the tested form may be a part): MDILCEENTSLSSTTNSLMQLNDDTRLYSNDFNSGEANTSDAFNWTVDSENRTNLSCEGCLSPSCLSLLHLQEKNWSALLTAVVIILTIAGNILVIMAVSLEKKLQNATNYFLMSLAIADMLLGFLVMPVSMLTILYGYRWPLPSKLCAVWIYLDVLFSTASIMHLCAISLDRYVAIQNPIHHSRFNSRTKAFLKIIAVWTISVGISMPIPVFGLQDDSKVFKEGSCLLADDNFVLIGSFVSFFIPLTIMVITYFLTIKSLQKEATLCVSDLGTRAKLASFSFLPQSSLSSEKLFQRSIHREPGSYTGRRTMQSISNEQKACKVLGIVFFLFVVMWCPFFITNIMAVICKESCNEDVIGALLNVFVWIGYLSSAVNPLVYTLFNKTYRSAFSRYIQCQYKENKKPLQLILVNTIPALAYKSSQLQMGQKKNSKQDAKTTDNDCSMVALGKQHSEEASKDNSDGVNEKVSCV
A general note: Recruitment of arrestin is a read-out of receptor activation apart from second messengers.

Data set [5] is described as follows: in vitro. The format is in vitro ADME, human. Conditions: HLM 0.50 mg/mL, NADPH 1 mM, 1 μM compound, pH 7.4, 37° C., 60 min.

For `C[C@H]1C[C@H](C)N1C(=O)[C@@H]1C=C2c3cccc4[nH]cc(c34)C[C@H]2N(C)C1` [Int11], the “ED50 (HTR)” value in data set [1] (20 min, curve fit poor in some cases) amounted to 0.0154 mg/kg. For the same compound, the “Emax, HTR/20 min” value in data set [1] (curve fit poor in some cases) amounted to 10.93 HTR/20 min. The “efficacy in HTR assay” value in data set [1] (maximal effect) is listed as “lower efficacy than analogous compounds bearing other amide substituents”. In addition, in data set [1] (most efficacious dose 0.1 mg/kg), the “# HTR/20 min at Most Efficacious Dose” value was 10.667 HTR/20 min. In addition, the “Intrinsic clearance (Clint)” value in data set [2] stood at 25.3 µL/min/mg; in data set [3], 100 µL/min/mg; in data set [5], 53.9 µL/min/mg. The “half-life (t1/2)” value in data set [2] is 54.9 min; in data set [3], 13.9 min; in data set [5] it was 25.7 min. Besides, in data set [4] (agonist, max dose), the “5-HT2A Arrestin % Act @ Max Dose” value stood at 49.27%. Also, the “5-HT2A arrestin agonist class” value in data set [4] was “partial agonists”. Further, the “5-HT2A arrestin Emax (bound)” value in data set [4] (partial agonists) is less than 60%.
